Test results as given in patent publication US12582677B2, “Methods for producing retinal tissue and retina-related cell” (SUMITOMO CHEMICAL COMPANY, LIMITED, priority 2011, dated 2026).

How the values were obtained:
Format in all cases: cell-based
[1] = test system: human ES cell-derived retinal tissue after freeze-thawing; test: Treatment of human ES cell-derived retinal tissue after freeze-thawing with DAPT: GFP fluorescence, Recoverin and Brn3 immunostaining; conditions: tissue freeze-thawed day 33, 10 μM DAPT added day 38
Description: RAX::GFP knock-in human ES cells (derived from KhES-1) were cultured according to the methods described in “Ueno, M. et al. PNAS 2006”, “Watanabe, K. et al. Nat Biotech 2007” and used for the experiment. As the medium, DMEM/F12 medium (Invitrogen) added with 20% KSR (Knockout Serum Replacement; Invitrogen), 0.1 mM 2-mercaptoethanol, 1 mM pyruvic acid, and 5 to 10 ng/ml bFGF was used. For the production of retinal tissue by floating culture, the ES cells were dispersed into single cells by using 0.25% trypsin-EDTA (Invitrogen), and floating-cultured in a serum-free medium (100 μl) at 37° C., 5% CO2 to 9×10^3 cells per well of a non-cell adhesive 96-well culture plate (SUMILON spheroid plate, SUMITOMO BAKELITE CO., LTD.). As the serum-free medium in this case, a serum-free medium obtained by adding 20% KSR, 0.1 mM 2-mercaptoethanol, 1 mM pyruvic acid, 20 μM Y27632 and a substance inhibiting the Wnt signal pathway (3 μM IWR1e) to G-MEM medium was used. […] Matrigel was added in an amount of 1/100 per volume from day 2 of the floating culture and floating culture was performed. Fetal calf serum in an amount of 1/10 per volume and a substance acting on the Shh signal pathway (100 nM SAG) were added on day 12 from the start of the floating culture and the floating culture was performed to produce a retinal tissue. The produced retinal tissue on day 33 from the start of the floating culture was freeze-thawed, and a Notch signal action inhibitory substance (10 μM DAPT) was added to the retinal tissue on day 38 from the start of the floating culture. […] The prepared frozen section was immunostained for Recoverin, which is one of the marker genes of photoreceptor, and Brn3, which is one of the marker genes of ganglion cells, and the results were compared between the presence and absence of DAPT-addition.

[2] = test system: Crx::GFP knock-in human ES cell-derived retinal tissue; test: Treatment of human ES cell-derived retinal tissue with DAPT: GFP fluorescence, Recoverin and Brn3 immunostaining; conditions: 10 μM DAPT added day 29
Description: CrX::GFP knock-in human ES cells (derived from KhES-1) were cultured according to the methods described in “Ueno, M. et al. PNAS 2006”, “Watanabe, K. et al. Nat Biotech 2007” and used for the experiment. As the medium, DMEM/F12 medium (Invitrogen) added with 20% KSR (Knockout Serum Replacement; Invitrogen), 0.1 mM 2-mercaptoethanol, 1 mM pyruvic acid, and 5 to 10 ng/ml bFGF was used. The ES cells were dispersed into single cells by using 0.25% trypsin-EDTA (Invitrogen), and floating-cultured in a serum-free medium (100 μl) at 37° C., 5% CO2 to 9×10^3 cells per well of a non-cell adhesive 96-well culture plate (SUMILON spheroid plate, SUMITOMO BAKELITE CO., LTD.). As the serum-free medium in this case, a serum-free medium obtained by adding 20% KSR, 0.1 mM 2-mercaptoethanol, 1 mM pyruvic acid, 20 μM Y27632 and a substance inhibiting the Wnt signal pathway (3 μM IWR1e) to G-MEM medium was used. Matrigel was added in an amount of 1/100 per volume from day 2 of the floating culture and floating culture was performed. Fetal calf serum in an amount of 1/10 per volume and a substance acting on the Shh signal pathway (100 nM SAG) were added on day 12 of floating culture and the floating culture was performed to produce a retinal tissue. A substance acting on the Notch signal (10 μM DAPT (gamma secretase activity inhibitor)) was added to the retinal tissue on day 29 from the start of the floating culture, observed with a fluorescence microscope on day 41 from the start of the floating culture (day 12 after the addition), and fixed with 4% para-formaldehyde on day 43 from the start of the floating culture (day 14 after the addition), and a frozen section was prepared. The prepared frozen section was immunostained for Recoverin, which is one of the marker genes of photoreceptor, and Brn3, which is one of the marker genes of ganglion cells, and the results were compared between the presence and absence of DAPT-addition.

[3] = test system: RAX::GFP knock-in human ES cells; test: Production of retinal tissue from human ES cell aggregates: GFP-expressing (retinal progenitor) cells by fluorescence microscopy and FACS
Description: RAX::GFP knock-in human ES cells (derived from KhES-1) were cultured according to the methods described in “Ueno, M. et al. PNAS 2006”, “Watanabe, K. et al. Nat Biotech 2007” and used for the experiment. As the medium, DMEM/F12 medium (Invitrogen) added with 20% KSR (Knockout Serum Replacement; Invitrogen), 0.1 mM 2-mercaptoethanol, 1 mM pyruvic acid, and 5 to 10 ng/ml bFGF was used. The ES cells were dispersed into single cells by using 0.25% trypsin-EDTA (Invitrogen), and floating-cultured in a serum-free medium (100 μl) at 37° C., 5% CO2 to 9×10^3 cells per well of a non-cell adhesive 96-well culture plate (SUMILON spheroid plate, SUMITOMO BAKELITE CO., LTD.). As the serum-free medium in this case, a serum-free medium obtained by adding 20% KSR, 0.1 mM 2-mercaptoethanol, 1 mM pyruvic acid and 20 μM Y27632 to G-MEM medium was used. During the floating culture, Matrigel in an amount of 1/100 per volume was added from day 2 from the start of the floating culture. Thereafter, fluorescence microscopic observation was regularly performed while continuing the floating culture.
RAX::GFP knock-in human ES cells (derived from KhES-1) were cultured according to the methods described in “Ueno, M. et al. PNAS 2006”, “Watanabe, K. et al. Nat Biotech 2007” and used for the experiment. As the medium, DMEM/F12 medium (Invitrogen) added with 20% KSR (Knockout Serum Replacement; Invitrogen), 0.1 mM 2-mercaptoethanol, 1 mM pyruvic acid, and 5-10 ng/ml bFGF was used. For the production of retinal tissue by floating culture, the ES cells were dissociated into single cells by using 0.25% trypsin-EDTA (Invitrogen), and floating-cultured in a serum-free medium (100 μl) at 37° C., 5% CO2 to 9×10^3 cells per well of a non-cell adhesive 96-well culture plate (SUMILON spheroid plate, SUMITOMO BAKELITE CO., LTD.). As the serum-free medium in this case, a serum-free medium obtained by adding 20% KSR, 0.1 mM 2-mercaptoethanol, 1 mM pyruvic acid, 20 μM Y27632 and a substance inhibiting the Nodal signal pathway (10 μM SB431542) to G-MEM medium was used. During the floating culture, Matrigel in an amount of 1/100 per volume was added from day 2 from the start of the floating culture. Thereafter, the floating culture was continued and fluorescence microscopic observation and confirmation of the proportion of the GFP-expressing cells were performed by FACS on day 18 from the start of the floating culture.
RAX::GFP knock-in human ES cells (derived from KhES-1) were cultured according to the methods described in “Ueno, M. et al. PNAS 2006”, “Watanabe, K. et al. Nat Biotech 2007” and used for the experiment. As the medium, DMEM/F12 medium (Invitrogen) added with 20% KSR (Knockout Serum Replacement; Invitrogen), 0.1 mM 2-mercaptoethanol, 1 mM pyruvic acid, and 5 to 10 ng/ml bFGF was used. For the production of retinal tissue by floating culture, the ES cells were dispersed into single cells by using 0.25% trypsin-EDTA (Invitrogen), and floating-cultured in a serum-free medium (100 μl) at 37° C., 5% CO2 to 9×10^3 cells per well of a non-cell adhesive 96-well culture plate (SUMILON spheroid plate, SUMITOMO BAKELITE CO., LTD.). As the serum-free medium in this case, a serum-free medium obtained by adding 20% KSR, 0.1 mM 2-mercaptoethanol, 1 mM pyruvic acid, 20 μM Y27632 and a substance inhibiting the Wnt signal pathway (3 μM IWR1e) to G-MEM medium was used. During the floating culture, Matrigel in an amount of 1/100 per volume was added from day 2 from the start of the floating culture. Thereafter, the floating culture was continued and fluorescence microscopic observation and confirmation of the proportion of the GFP-expressing cells were performed by FACS on day 18 from the start of the floating culture.
RAX::GFP knock-in human ES cells (derived from KhES-1) were cultured according to the methods described in “Ueno, M. et al. PNAS 2006”, “Watanabe, K. et al. Nat Biotech 2007” and used for the experiment. […]

[4] = test system: RAX::GFP knock-in human ES cells; test: Production of optic-cup-like structure from human ES cell aggregates; conditions: 3 μM CHIR99021 and 100 nM SAG together in serum-containing medium from day 15
Description: RAX::GFP knock-in human ES cells (derived from KhES-1) were cultured according to the methods described in “Ueno, M. et al. PNAS 2006”, “Watanabe, K. et al. Nat Biotech 2007” and used for the experiment. As the medium, DMEM/F12 medium (Invitrogen) added with 20% KSR (Knockout Serum Replacement; Invitrogen), 0.1 mM 2-mercaptoethanol, 1 mM pyruvic acid, and 5 to 10 ng/ml bFGF was used. For the formation of aggregate by floating culture, the ES cells were dispersed into single cells by using 0.25% trypsin-EDTA (Invitrogen), suspended in a serum-free medium (100 μl) to 9×10^3 cells per well of a non-cell adhesive 96-well culture plate (SUMILON spheroid plate, SUMITOMO BAKELITE CO., LTD.) to allow for rapid formation of aggregates, and floating cultured at 37° C., 5% CO2. As the serum-free medium in this case, a serum-free medium obtained by adding 20% KSR, 0.1 mM 2-mercaptoethanol, 1 mM pyruvic acid, 20 μM Y27632 and a substance inhibiting the Wnt signal pathway (3 μM IWR1e) to G-MEM medium was used. During the floating culture, Matrigel in an amount of 1/100 per volume was added from day 2 from the start of the floating culture. The floating aggregate was transferred to a serum-free medium without a substance inhibiting the Wnt signal pathway on day 12 from the start of the floating culture, fetal calf serum in an amount of 1/10 per volume was added and the aggregate was cultured. […]

[5] = 100 nM SAG and fetal calf serum 1/10 added day 12, with 3 μM IWR1e and Matrigel, day 18

C[C@H](NC(=O)Cc1cc(F)cc(F)c1)C(=O)N[C@H](C(=O)OC(C)(C)C)c1ccccc1 [DAPT, N-[N-(3,5-difluorophenacetyl)-L-alanyl]-S-phenylglycine t-butyl ester]
Recoverin-positive cells produced (immunostaining of frozen section) ([1]; day 49): about 5 fold | ganglion cells (immunostaining of Brn3) ([1]; day 49): produced | GFP-expressing cells (fluorescence microscope) compared to no DAPT ([1]; observed day 49): markedly produced | ganglion cells (immunostaining of Brn3) ([2]; fixed day 43): increased | increase of Recoverin-positive cells (immunostaining of frozen section) ([2]; fixed day 43): 3- to 5 fold | GFP-expressing cells (fluorescence microscope) compared to no DAPT ([2]; observed day 41): markedly increased

O=C(Nc1cccc2cccnc12)c1ccc(N2C(=O)[C@@H]3[C@H](C2=O)[C@@H]2C=C[C@H]3C2)cc1 [IWR1e]
GFP-expressing cells (fluorescence microscopic observation) ([3]; 3 μM IWR1e in serum-free medium, Matrigel 1/100 from day 2, compared to Comparative Examples 1 and 2): clearly increased | proportion of the GFP-expressing cells (FACS) ([3]; 3 μM IWR1e, Matrigel, no serum (Comparative Example 3), day 18 of floating culture): 3.2%

CNC1CCC(N(Cc2cccc(-c3ccncc3)c2)C(=O)c2sc3ccccc3c2Cl)CC1 (stereo not shown) [SAG]
GFP-expressing cells (fluorescence microscopic observation) [3, 5]: a very high number of GFP-expressing cells emerged | proportion of the GFP-expressing cells (FACS) [3, 5]: not less than 70% | increase of proportion of GFP-expressing cells compared to Comparative Example 3 ([3]; Example 2: serum and 100 nM SAG added simultaneously, with 3 μM IWR1e and Matrigel): about 24 fold | optic-cup-like structure formation on aggregate [4]: a clear optic-cup-like structure was formed

NC(=O)c1ccc(-c2nc(-c3ccc4c(c3)OCO4)c(-c3ccccn3)[nH]2)cc1 [SB431542]
GFP-expressing cells (fluorescence microscopic observation) ([3]; 10 μM SB431542 in serum-free medium, Matrigel 1/100 from day 2): somewhat found
